Measured values as given in US10472356B2, “Bicyclic ketone sulfonamide compounds” (AMGEN INC., priority 2015, dated 2019).

How the values were obtained:
Assay type in all cases: cell-based
human Nav1.7 [1] = target: T1, human Nav1.7 (Homo sapiens, UniProt Q15858); test: Nav 1.7 IWB In Vitro Assay (IonWorks Barracuda); settings: HEK293 cells stably transfected with human Nav 1.7; IonWorks Barracuda population patch-clamp; cells clamped to −20 mV for 4 minutes with compound; 26th pulse; read-out: hNav1.7 IWB IC50
T1 construct: expressed in transfected cells; host or cells: HEK293
Outline: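 IC50 derived from concentration-response of percent block of the 26th-pulse peak inward current, compound vs none. Protocol: stable human Nav 1.7 HEK293 cells on automated population patch clamp, held at −110 mV, 5 Hz train of 150 ms steps to −20 mV, 4 min compound exposure depolarized at −20 mV, 3 s repolarization, train repeated.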

human Nav1.7 [2] = target: T1, human Nav1.7; test: Nav 1.7 In Vitro PatchXpress (PX) Assay; settings: HEK 293 cells stably transfected with human Nav1.7; PatchXpress whole cell voltage clamp; partially inactivated state (holding potential yielding 20 to 50% inactivation); read-out: hNav1.7 PX IC50
Outline: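 Percent inhibition of peak sodium current taken after 3 min exposure to one compound concentration, 3–5 cells each, with IC50 curve fits. Partially inactivated channels (20–50% inactivation at holding potential) in Nav1.7-HEK 293 cells, activated by 20 ms steps to −10 mV every 10 s.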

human Nav1.7 [3] = target: T1, human Nav1.7; test: Nav 1.7 IWQ In Vitro Assay (IonWorks Quattro); settings: HEK293 cells stably transfected with human Nav 1.7; IonWorks Quattro population patch-clamp; 26th pulse to −20 mV, 5 Hz; cells unclamped 5 to 8 minutes with compound; read-out: hNav1.7 IWQ IC50
Outline: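 Population patch clamp on HEK293 cells stably expressing human Nav 1.7: held at −110 mV for three seconds, then 26 pulses of 150 msec to −20 mV at 5 Hz, before and after 5-8 min with one compound concentration. Percent inhibition from peak current at the 26th pulse.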

T1 sequence (Q15858 whole entry): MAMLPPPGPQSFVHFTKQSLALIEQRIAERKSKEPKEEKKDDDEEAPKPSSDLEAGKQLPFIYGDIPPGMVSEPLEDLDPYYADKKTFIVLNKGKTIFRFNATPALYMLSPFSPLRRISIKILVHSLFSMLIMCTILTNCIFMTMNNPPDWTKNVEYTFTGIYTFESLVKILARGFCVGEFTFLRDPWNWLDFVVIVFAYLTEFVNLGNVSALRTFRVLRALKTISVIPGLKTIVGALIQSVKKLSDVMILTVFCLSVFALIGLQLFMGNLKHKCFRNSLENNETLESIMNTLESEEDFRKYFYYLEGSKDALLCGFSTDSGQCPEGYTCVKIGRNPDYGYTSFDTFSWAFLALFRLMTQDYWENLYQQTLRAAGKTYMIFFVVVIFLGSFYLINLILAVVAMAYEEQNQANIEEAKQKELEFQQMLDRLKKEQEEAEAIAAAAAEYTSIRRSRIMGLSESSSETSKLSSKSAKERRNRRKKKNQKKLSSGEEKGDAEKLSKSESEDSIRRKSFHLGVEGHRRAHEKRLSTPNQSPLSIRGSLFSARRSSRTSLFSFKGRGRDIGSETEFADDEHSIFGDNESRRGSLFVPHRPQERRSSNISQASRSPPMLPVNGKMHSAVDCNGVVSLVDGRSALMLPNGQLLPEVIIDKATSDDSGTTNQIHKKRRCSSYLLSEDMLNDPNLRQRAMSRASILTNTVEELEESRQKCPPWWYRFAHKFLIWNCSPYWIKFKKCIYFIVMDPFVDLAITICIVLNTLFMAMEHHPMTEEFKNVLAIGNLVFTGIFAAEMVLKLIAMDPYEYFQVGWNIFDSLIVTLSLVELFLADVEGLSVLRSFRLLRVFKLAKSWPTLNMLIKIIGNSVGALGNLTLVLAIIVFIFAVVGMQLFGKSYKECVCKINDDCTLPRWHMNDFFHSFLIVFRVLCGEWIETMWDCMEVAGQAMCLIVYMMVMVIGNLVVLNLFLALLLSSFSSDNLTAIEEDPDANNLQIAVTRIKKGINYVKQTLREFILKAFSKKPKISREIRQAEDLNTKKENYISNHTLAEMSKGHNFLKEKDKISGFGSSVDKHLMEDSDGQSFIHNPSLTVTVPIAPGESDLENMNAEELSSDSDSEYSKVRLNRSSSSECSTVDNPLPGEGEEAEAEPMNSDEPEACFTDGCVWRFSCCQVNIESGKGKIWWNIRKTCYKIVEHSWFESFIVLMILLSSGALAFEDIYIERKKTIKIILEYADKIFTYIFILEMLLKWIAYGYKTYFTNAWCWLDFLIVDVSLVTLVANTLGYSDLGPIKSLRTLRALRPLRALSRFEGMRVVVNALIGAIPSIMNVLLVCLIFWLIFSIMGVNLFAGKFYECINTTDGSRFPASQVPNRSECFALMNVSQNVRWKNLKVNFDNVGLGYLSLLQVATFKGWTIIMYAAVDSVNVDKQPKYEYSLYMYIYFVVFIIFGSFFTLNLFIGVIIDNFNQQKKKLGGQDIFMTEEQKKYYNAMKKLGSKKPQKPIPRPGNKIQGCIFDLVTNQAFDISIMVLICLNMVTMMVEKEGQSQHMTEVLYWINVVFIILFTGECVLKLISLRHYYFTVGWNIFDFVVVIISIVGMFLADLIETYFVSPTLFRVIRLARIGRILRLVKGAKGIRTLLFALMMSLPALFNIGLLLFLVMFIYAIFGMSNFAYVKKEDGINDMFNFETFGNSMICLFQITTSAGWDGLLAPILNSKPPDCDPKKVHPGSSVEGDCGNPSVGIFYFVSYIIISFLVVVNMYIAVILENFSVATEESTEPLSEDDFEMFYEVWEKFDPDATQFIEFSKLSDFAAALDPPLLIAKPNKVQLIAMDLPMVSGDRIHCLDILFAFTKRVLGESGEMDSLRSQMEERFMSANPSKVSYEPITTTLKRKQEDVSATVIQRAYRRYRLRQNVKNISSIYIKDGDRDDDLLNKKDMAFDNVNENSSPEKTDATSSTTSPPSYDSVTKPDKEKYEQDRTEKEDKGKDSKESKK

In the case of `COc1cc(-c2cc(F)cc(Cl)c2)c(F)cc1-n1c2c(ccc1=O)CN(S(=O)(=O)Nc1cc(C)ncn1)CC2` (single isomer, unassigned) [Example 4-P, P-1-(3′-chloro-2,5′-difluoro-5-methoxy-4-biphenylyl)-N-(6-methyl-4-pyrimidinyl)-2-oxo-1,5,7,8-tetrahydro-1,6-naphthyridine-6(2H)-sulfonamide], the IC50 (human Nav1.7 [1]) is reported as 31.8 nM, the IC50 (human Nav1.7 [2]) is reported as 78.4 nM and the IC50 (human Nav1.7 [3]) is reported as 24.3 nM.
With `COc1cc(-c2cc(F)cc(Cl)c2)c(F)cc1-n1c2c(ccc1=O)CN(S(=O)(=O)Nc1ncns1)CC2` (single isomer, unassigned) [Example 5-P, P-1-(3′-chloro-2,5′-difluoro-5-methoxy-4-biphenylyl)-2-oxo-N-1,2,4-thiadiazol-5-yl-1,5,7,8-tetrahydro-1,6-naphthyridine-6(2H)-sulfonamide] the IC50 (human Nav1.7 [1]) was 1.5 nM, the IC50 (human Nav1.7 [2]) was 12.3 nM and the IC50 (human Nav1.7 [3]) was 1.6 nM.
`COc1cc(-c2cc(F)cc(Cl)c2)c(F)cc1-n1c2c(ccc1=O)CN(S(=O)(=O)Nc1ccnc(C)n1)CC2` (single isomer, unassigned) [Example 6-P, P-1-(3′-chloro-2,5′-difluoro-5-methoxy-4-biphenylyl)-N-(2-methyl-4-pyrimidinyl)-2-oxo-1,5,7,8-tetrahydro-1,6-naphthyridine-6(2H)-sulfonamide] gave an IC50 (human Nav1.7 [1]) of 64.8 nM, an IC50 (human Nav1.7 [2]) of 269 nM and an IC50 (human Nav1.7 [3]) of 25.4 nM.
With `COc1cc(-c2cc(F)cc(Cl)c2)ccc1-n1c2c(ccc1=O)CN(S(=O)(=O)Nc1ccon1)CC2` (single isomer, unassigned) [Example 7-P, P-1-(3′-chloro-5′-fluoro-3-methoxy-4-biphenylyl)-N-3-isoxazolyl-2-oxo-1,5,7,8-tetrahydro-1,6-naphthyridine-6(2H)-sulfonamide] the IC50 (human Nav1.7 [1]) was 14.3 nM, the IC50 (human Nav1.7 [2]) was 76.3 nM and the IC50 (human Nav1.7 [3]) was 7.8 nM.
In the case of `COc1cc(-c2cc(Cl)ccc2C)c(F)cc1-n1c2c(ccc1=O)CN(S(=O)(=O)Nc1ccon1)CC2` (single isomer, unassigned) [Example 9-P, P-1-(5′-chloro-2-fluoro-5-methoxy-2′-methyl-4-biphenylyl)-N-3-isoxazolyl-2-oxo-1,5,7,8-tetrahydro-1,6-naphthyridine-6(2H)-sulfonamide], the IC50 (human Nav1.7 [1]) is reported as 3.1 nM, the IC50 (human Nav1.7 [2]) is reported as 18 nM and the IC50 (human Nav1.7 [3]) is reported as 2.1 nM.
`COc1cc(-c2cc(F)cc(Cl)c2)c(F)cc1-n1c2c(ccc1=O)CN(S(=O)(=O)Nc1ccccn1)CC2` (single isomer, unassigned) [Example 11-P, P-1-(3′-chloro-2,5′-difluoro-5-methoxy-4-biphenylyl)-2-oxo-N-2-pyridinyl-1,5,7,8-tetrahydro-1,6-naphthyridine-6(2H)-sulfonamide] showed an IC50 (human Nav1.7 [1]) of 55.3 nM, an IC50 (human Nav1.7 [2]) of 166 nM and an IC50 (human Nav1.7 [3]) of 54 nM.
`COc1cc(-c2cc(F)cc(Cl)c2)c(F)cc1-n1c2c(ccc1=O)CN(S(=O)(=O)Nc1ccc(F)cn1)CC2` (single isomer, unassigned) [Example 12-P, P-1-(3′-chloro-2,5′-difluoro-5-methoxy-4-biphenylyl)-N-(5-fluoro-2-pyridinyl)-2-oxo-1,5,7,8-tetrahydro-1,6-naphthyridine-6(2H)-sulfonamide] showed an IC50 (human Nav1.7 [1]) of 52.5 nM, an IC50 (human Nav1.7 [2]) of 44.5 nM and an IC50 (human Nav1.7 [3]) of 56.6 nM.
`COc1cc(-c2cc(F)cc(Cl)c2)c(F)cc1-n1c2c(ccc1=O)CN(S(=O)(=O)Nc1cccc(F)n1)CC2` (single isomer, unassigned) [Example 13-P, P-1-(3′-chloro-2,5′-difluoro-5-methoxy-4-biphenylyl)-N-(6-fluoro-2-pyridinyl)-2-oxo-1,5,7,8-tetrahydro-1,6-naphthyridine-6(2H)-sulfonamide] showed an IC50 (human Nav1.7 [1]) of 27.1 nM, an IC50 (human Nav1.7 [2]) of 27.9 nM and an IC50 (human Nav1.7 [3]) of 28.4 nM.
With `COc1cc(-c2cc(F)cc(F)c2)c(F)cc1-n1c2c(ccc1=O)CN(S(=O)(=O)Nc1cccc(F)n1)CC2` (single isomer, unassigned) [Example 14-P, P-N-(6-fluoro-2-pyridinyl)-2-oxo-1-(2,3′,5′-trifluoro-5-methoxy-4-biphenylyl)-1,5,7,8-tetrahydro-1,6-naphthyridine-6(2H)-sulfonamide] the IC50 (human Nav1.7 [1]) was 12.4 nM, the IC50 (human Nav1.7 [2]) was 103 nM and the IC50 (human Nav1.7 [3]) was 26 nM.
`COc1cc(-c2cccc(C(F)(F)F)c2)c(F)cc1-n1c2c(ccc1=O)CN(S(=O)(=O)Nc1ccon1)CC2` (single isomer, unassigned) [Example 16-P, P-1-(2-fluoro-5-methoxy-3′-(trifluoromethyl)-4-biphenylyl)-N-3-isoxazolyl-2-oxo-1,5,7,8-tetrahydro-1,6-naphthyridine-6(2H)-sulfonamide] showed an IC50 (human Nav1.7 [1]) of 2.4 nM, an IC50 (human Nav1.7 [2]) of 15.8 nM and an IC50 (human Nav1.7 [3]) of 2.6 nM.
`COc1cc(-c2cc(F)cc(Cl)c2)c(F)cc1-n1c2c(ccc1=O)CN(S(=O)(=O)Nc1ccon1)CC2` (single isomer, unassigned) [Example 18-P, P-1-(3′-chloro-2,5′-difluoro-5-methoxy-4-biphenylyl)-N-3-isoxazolyl-2-oxo-1,5,7,8-tetrahydro-1,6-naphthyridine-6(2H)-sulfonamide] gave an IC50 (human Nav1.7 [1]) of 3.9 nM, an IC50 (human Nav1.7 [2]) of 17.5 nM and an IC50 (human Nav1.7 [3]) of 2.9 nM.
For `COc1cc(-c2cccc(OC(F)F)c2)c(F)cc1-n1c2c(ccc1=O)CN(S(=O)(=O)Nc1ccon1)CC2` (single isomer, unassigned) [Example 19-P, P-1-(3′-(difluoromethoxy)-2-fluoro-5-methoxy-4-biphenylyl)-N-3-isoxazolyl-2-oxo-1,5,7,8-tetrahydro-1,6-naphthyridine-6(2H)-sulfonamide], the IC50 (human Nav1.7 [1]) was 7.4 nM, the IC50 (human Nav1.7 [2]) was 33.3 nM and the IC50 (human Nav1.7 [3]) was 5 nM.
`COc1cc(-c2ccc(F)c(F)c2)c(F)cc1-n1c2c(ccc1=O)CN(S(=O)(=O)Nc1ccon1)CC2` (single isomer, unassigned) [Example 20-P, P-N-3-isoxazolyl-2-oxo-1-(2,3′,4′-trifluoro-5-methoxy-4-biphenylyl)-1,5,7,8-tetrahydro-1,6-naphthyridine-6(2H)-sulfonamide] gave an IC50 (human Nav1.7 [1]) of 11.5 nM, an IC50 (human Nav1.7 [2]) of 39.3 nM and an IC50 (human Nav1.7 [3]) of 3.6 nM.
In the case of `COc1cc(-c2ccc(C)c(F)c2)c(F)cc1-n1c2c(ccc1=O)CN(S(=O)(=O)Nc1ccon1)CC2` (single isomer, unassigned) [Example 21-P, P-1-(2,3′-difluoro-5-methoxy-4′-methyl-4-biphenylyl)-N-3-isoxazolyl-2-oxo-1,5,7,8-tetrahydro-1,6-naphthyridine-6(2H)-sulfonamide], the IC50 (human Nav1.7 [1]) is reported as 9.5 nM, the IC50 (human Nav1.7 [2]) is reported as 24.3 nM and the IC50 (human Nav1.7 [3]) is reported as 7.7 nM.
With `COc1cc(-c2ccc(F)c(C)c2)c(F)cc1-n1c2c(ccc1=O)CN(S(=O)(=O)Nc1ccon1)CC2` (single isomer, unassigned) [Example 22-P, P-1-(2,4′-difluoro-5-methoxy-3′-methyl-4-biphenylyl)-N-3-isoxazolyl-2-oxo-1,5,7,8-tetrahydro-1,6-naphthyridine-6(2H)-sulfonamide] the IC50 (human Nav1.7 [1]) was 8 nM, the IC50 (human Nav1.7 [2]) was 106 nM and the IC50 (human Nav1.7 [3]) was 3.2 nM.
With `COc1cc(-c2ccc(Cl)c(C)c2)c(F)cc1-n1c2c(ccc1=O)CN(S(=O)(=O)Nc1ccon1)CC2` (single isomer, unassigned) [Example 24-P, P-1-(4′-chloro-2-fluoro-5-methoxy-3′-methyl-4-biphenylyl)-N-3-isoxazolyl-2-oxo-1,5,7,8-tetrahydro-1,6-naphthyridine-6(2H)-sulfonamide] the IC50 (human Nav1.7 [1]) was 3.8 nM, the IC50 (human Nav1.7 [2]) was 20.9 nM and the IC50 (human Nav1.7 [3]) was 5.2 nM.
